The record followed here is patent US20100094430A1, “Device” (priority 2006, published 2010).

A short description of this series: Solubility of precursor compounds in methanol. It is filed as physicochemical. On the procedure: Ca(dbm)2.4H2O (1 g) was weighed into a 250 mL conical flask. Methanol (50 mL) was added, the flask was stoppered and the solution was swirled for […]2 min. The solution was incubated in a water bath at varying temperatures (20°, 30° or 40° C.) for a period of 4 or 17 h. At the end of the incubation period, two 20 mL aliquots of the solution were filtered into separate, pre-weighed round bottomed flasks. […] Experiments for all conditions were carried out in duplicate. The results of the solubility experiments are compiled in Table 2.

With `O.O.O.O.O=C(C=C([O-])c1ccccc1)c1ccccc1.O=C(C=C([O-])c1ccccc1)c1ccccc1.[Ca+2]` [Ca(dbm)2•4H2O, Ca(dbm)2.4H2O], the solubility in methanol runs as follows: (incubation 20° C., 4 h) 1.78 ± 0.1 g/100 mL; (incubation 20° C., 17 h) 1.91 ± 0.5 g/100 mL; (incubation 30° C., 4 h) 1.86 ± 0.1 g/100 mL; (incubation 30° C., 17 h) 1.88 ± 0.5 g/100 mL; (incubation 40° C., 4 h) 1.98 ± 0.2 g/100 mL; (incubation 40° C., 17 h) 1.92 ± 0.4 g/100 mL. For the same compound, the “solubility in methanol relative to the acac and benzoylacetone calcium complexes” value (qualitative comparison) is recorded as “higher solubility”.
